Structures can show the parent of a compound that is named as a salt.
Experiments:
NHE1 = target: T1, NHE1 (Homo sapiens, UniProt P19634); assay: NHE inhibition FLIPR test (intracellular pH recovery, BCECF); format: cell-based; conditions: transfected LAP-1 cell line expressing NHE1 subtype, pHi recovery after acidification
T1 construct: expressed in transfected cells
Method: The NHE inhibitory activities (IC50 values) of the compounds according to the invention were determined by a FLIPR test.
The test is performed in the FLIPR (Fluorescent Imaging Plate Reader) equipped with clear-bottomed and black-walled 96-well microtitration plates.
The growth medium for the transfected cells (Iscove+10% foetal calf serum) also comprises G418 as selection antibiotic to ensure the presence of transfected sequences.
The actual test begins by eliminating the growth medium and adding 100 μl of loading buffer per well (5 μM of BCECF-AM [2′,7′-bis(2-carboxyethyl)-5-(6)-carboxyfluoresceine acetoxymethyl ester] in 20 mM of NH4Cl, 115 mM of choline chloride, 1 mM of CaCl2, 5 mM of KCl, 20 mM of HEPES and 5 mM of glucose; pH 7.4 (adjusted with KOH). The cells are then incubated for 20 minutes at 37° C. This incubation results in the loading of the fluorescent dye into the cells, the fluorescence intensity of which depends on the pHi, and on the NH4Cl, which results in a slight basification of the cells.
The precursor BCECF-AM, a non-fluorescent dye, is, as an ester, capable of crossing the membrane. The actual dye, which is incapable of crossing the membrane, is released inside the cell by esterases.
After this 20-minute incubation, the loading buffer, which comprises NH4Cl and free BCECF-AM, is removed by washing three times in the cell washing device (Tecan Columbus), each wash being performed with 400 μl of washing buffer (133.8 mM of choline chloride, 4.7 mM of KCl, 1.25 mM of MgCl2,1.25 mM of CaCl2, 0.97 mM of K2HPO4, 0.23 mM of KH2PO4, 5 mM of HEPES and 5 mM of glucose; pH 7.4 (adjusted with KOH)). The residual volume remaining in the wells is 90 μl (possibly between 50 and 125 μl). This washing step removes the free BCECF-AM and results in an intracellular acidification (pHi of 6.3–6.4) due to the removal of the external ammonium ions.
As the equilibrium of the intracellular ammonium with the aqueous ammonia and the protons, by removal of the extracellular ammonium and by the subsequent immediate crossing of the aqueous ammonia across the cell membrane, is disrupted, the washing process results in intracellular protons remaining, which is the cause of the intracellular acidification. This acidification can result finally in the death of the cells if it lasts long enough. It is important here for the washing buffer to be free of sodium (<1 mM), otherwise the extracellular sodium ions would result in an immediate increase in the pHi on account of the activity of the cloned NHE isoforms. It is also important for all the buffers used (loading buffer, washing buffer and regeneration buffer) not to contain any HCO3^− ions, otherwise the presence of bicarbonate would result in the activation of bicarbonate-dependent systems that disrupt the pHi regulation, which systems are contained in the LAP-1 parental cell line.
The microtiter plates containing acidified cells are then transferred (up to 20 minutes after the acidification) to the FLIPR. In the FLIPR, the intracellular fluorescent dye is activated with light of a wavelength of 488 nm, which is generated by an argon laser, and the measuring parameters (laser power, illumination time and diaphragm of the […] camera integrated into the FLIPR) are chosen such that the average value of the fluorescent signal per well is between 30,000 and 35,000 relative fluorescence units.
The actual measurement in the FLIPR starts with a photograph being taken by the CCD camera every two seconds under software control. After 10 seconds, the increase in the intracellular pH is initiated by adding 90 μl. of regeneration buffer (133.8 mM of NaCl, 4.7 mM of KCl, 1.25 mM of MgCl2, 1.25 mM of CaCl2, 0.97 mM of K2HPO4, 0.23 mM of KH2PO4, 10 mM of HEPES and 5 mM of glucose; pH 7.4 (adjusted with NaOH)) using a 96-well pipette device incorporated into the FLIPR. Some wells, to which is added pure regeneration buffer, serve as positive controls (100% NHE activity). […]

T1 sequence (P19634 whole entry, species assumed): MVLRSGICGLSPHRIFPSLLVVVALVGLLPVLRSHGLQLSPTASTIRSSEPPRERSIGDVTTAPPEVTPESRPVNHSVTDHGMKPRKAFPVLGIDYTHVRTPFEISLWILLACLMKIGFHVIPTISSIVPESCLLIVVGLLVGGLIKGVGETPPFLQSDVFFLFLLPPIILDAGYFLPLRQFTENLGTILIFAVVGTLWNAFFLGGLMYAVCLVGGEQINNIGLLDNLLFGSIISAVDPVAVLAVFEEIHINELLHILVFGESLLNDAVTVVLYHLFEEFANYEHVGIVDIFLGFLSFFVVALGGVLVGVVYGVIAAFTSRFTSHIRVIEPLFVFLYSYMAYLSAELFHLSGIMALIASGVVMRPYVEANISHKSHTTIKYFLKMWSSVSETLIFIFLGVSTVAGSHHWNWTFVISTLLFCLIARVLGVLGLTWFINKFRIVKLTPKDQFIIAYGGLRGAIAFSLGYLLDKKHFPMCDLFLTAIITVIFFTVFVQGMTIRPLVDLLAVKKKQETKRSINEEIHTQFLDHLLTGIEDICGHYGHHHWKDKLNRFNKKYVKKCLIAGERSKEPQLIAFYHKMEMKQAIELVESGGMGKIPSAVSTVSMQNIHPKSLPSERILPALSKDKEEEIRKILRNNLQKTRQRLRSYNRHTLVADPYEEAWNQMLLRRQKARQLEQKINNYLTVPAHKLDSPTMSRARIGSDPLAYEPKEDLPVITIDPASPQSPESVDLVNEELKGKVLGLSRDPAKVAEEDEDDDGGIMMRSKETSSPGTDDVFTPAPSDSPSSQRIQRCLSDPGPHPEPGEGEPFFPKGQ

| Structure (SMILES) | IC50 (NHE1) [nM] | melting point [°C] |
| --- | --- | --- |
| CS(=O)(=O)c1ccc(-n2cc(C(=O)NC(=N)N)c3cccnc32)cc1 [Example 6, N-[1-(4-(Methylsulfonyl)phenyl)-1H-pyrrolo[2,3-b]pyridine-3-carbonyl]guanidine hydrochloride] | 3760 |  |
| N=C(N)NC(=O)c1cn(-c2ccncc2)c2ncccc12 [Example 2, N-[1-(Pyridin-4-yl)-1H-pyrrolo[2,3-b]pyridine-3-carbonyl]guanidine] | 10 | 210 |
| Cn1ccc2c(-n3cc(C(=O)NC(=N)N)c4cccnc43)ncnc21 [Example 9, N-[1-(7-Methyl-7H-pyrrolo[2,3-d]pyrimidin-4-yl)-1H-pyrrolo[2,3-b]pyridine-3-carbonyl]-guanidine] | 37 | > 260 |
| N=C(N)NC(=O)c1cn(-c2ccc3ccccc3n2)c2ncccc12 [Example 4, N-[1-(Quinolin-2-yl)-1H-pyrrolo[2,3-b]pyridine-3-carbonyl]guanidine] | 6240 |  |
| Cc1cc(-n2cc(C(=O)NC(=N)N)c3cccnc32)c2ccccc2n1 [Example 8, N-[1-(2-Methylquinolin-4-yl)-1H-pyrrolo[2,3-b]pyridine-3-carbonyl]guanidine hydrochloride] | 26 |  |
| N=C(N)NC(=O)c1cn(-c2nccc3ccccc23)c2ncccc12 [Example 3, N-[1-(Isoquinolin-1-yl)-1H-pyrrolo[2,3-b]pyridine-3-carbonyl]guanidine] | 15 |  |
| N=C(N)NC(=O)c1cn(-c2cc(O)nc3ccccc23)c2ncccc12 [Example 10, N-[1-(2-Hydroxy-quinolin-4-yl)-1H-pyrrolo[2,3-b]pyridine-3-carbonyl]-guanidine] | 660 |  |
| N=C(N)NC(=O)c1cn(-c2ccnc3ccccc23)c2ncccc12 [Example 1, N-[1-(Quinolin-4-yl)-1H-pyrrolo[2,3-b]pyridine-3-carbonyl]guanidine] | 3 | 164 |
| CN(C)c1cccc(-n2cc(C(=O)NC(=N)N)c3cccnc32)c1 [Example 7, N-[1-(3-(Dimethylamino)phenyl)-1H-pyrrolo[2,3-b]pyridine-3-carbonyl]guanidine] | 3 |  |
| CS(=O)(=O)c1ccc(-n2cc(C(=O)NC(=N)N)c3cccnc32)cc1 (as salt: hydrochloride) [Example 6, N-[1-(4-(Methylsulfonyl)phenyl)-1H-pyrrolo[2,3-b]pyridine-3-carbonyl]guanidine hydrochloride] |  | 266 to 270 |
| Cl.N=C(N)NC(=O)c1cn(-c2ccccn2)c2ncccc12 [Example 5, N-[1-(Pyridin-2-yl)-1H-pyrrolo[2,3-b]pyridine-3-carbonyl]guanidine hydrochloride] | 18 | 205 to 207 |

From patent US7230007B2, “Derivatives of 3-(Guanidinocarbonyl) heterocycle, methods of preparation and intermediates thereof, their use as medicaments, and pharmaceutical compositions therefrom” (Sanofi-Aventis Deutschland GmbH, priority 2003, dated 2007)
